Reference: patent US20230157290A1, “ALKENE-CONTAINING CARBOXYLATE COMPOUND AND USE THEREOF” (SHENYANG SINOCHEM AGROCHEMICALS R&D CO., LTD, priority 2019, published 2023)

Legend:
Format in all cases: in vivo
Conditions in all cases: after emergence
piemarker = experiment: Herbicidal activity, post-emergence stem and leaf spray, greenhouse: piemarker control
Description: (§1) Seeds of broadleaf weeds (zinnia and piemarker) or grassy weeds (green bristlegrass and barnyard grass) were respectively sown in a paper cup having a diameter of 7 cm and containing nutrient soil; after sowing, the seeds were covered with 1 cm of soil, the soil was pressed and watered, and then the seeds were cultivated in a greenhouse according to a conventional method; and stems and leaves were sprayed after 2-3 leaf stage of the weeds.
(§2) After the original medicinal acetone was dissolved, the test requires to use 1‰ of Tween 80 to stand in running water to prepare the solution to be tested with a required concentration. According to the design dose of the test, spray treatment was carried out on a track-type crop sprayer (designed and produced by British Engineer Research Ltd.) (spray pressure is 1.95 kg/cm^2, spray volume is 500 L/hm^2 and track speed is 1.48 km/h). The test was repeated for three times. The test material was treated and then placed in an operation hall. The medicinal liquid was naturally dried in the shade, and then was placed in a greenhouse and managed according to the conventional method. The response of the weeds to the drug was observed and recorded. After treatment, the control effects of the test drug on the weeds were visually inspected regularly, expressed by 0-100%. “0” represents no control effect and “100%4” represents complete killing.
According to the above test method, part of the compounds of the formula and KC1 are selected for activity test of controlling the piemarker.

barnyard grass = experiment: Herbicidal activity, post-emergence stem and leaf spray, greenhouse: barnyard grass control
Description: as §1, §2
According to the above test method, part of the compounds of the formula I and KC1 or KC2 are selected for activity test of controlling the barnyard grass.

zinnia = experiment: Herbicidal activity, post-emergence stem and leaf spray, greenhouse: zinnia control
Description: as §1, §2
According to the above test method, part of the compounds of the formula I and KC1 are selected for activity test of controlling the zinnia.

green bristlegrass = experiment: Herbicidal activity, post-emergence stem and leaf spray, greenhouse: green bristlegrass control
Description: as §1, §2
According to the above test method, part of the compounds of the formula I and KC1 or KC2 are selected for activity test of controlling the green bristlegrass.

[1] = dose 600 g a.i./hm^2, visual, 0 = no control effect, 100% = complete killing

Cc1nn(C)c(OC(=O)/C=C/c2ccccc2)c1C(=O)c1ccc(C(F)(F)F)cc1S(C)(=O)=O [Compound 1-1]
Piemarker control activity (control effect %) (piemarker; dose 37.5 g a.i./hm^2): 90%
Piemarker control activity (control effect %) (piemarker; dose 150 g a.i./hm^2): 95%
Piemarker control activity (control effect %) (piemarker; dose 600 g a.i./hm^2): 100%

Cc1c(S(C)(=O)=O)ccc(C(=O)c2cnn(C)c2OC(=O)/C=C/c2ccc3c(c2)OCO3)c1Cl [Compound 1-42]
Barnyard grass control activity (control effect %) (barnyard grass; dose 37.5 g a.i./hm^2): 80%
Barnyard grass control activity (control effect %) (barnyard grass; dose 150 g a.i./hm^2): 95%
Barnyard grass control activity (control effect %) (barnyard grass; dose 600 g a.i./hm^2): 100%
Zinnia control activity (control effect %) (zinnia; dose 37.5 g a.i./hm^2): 100%
Zinnia control activity (control effect %) (zinnia; dose 150 g a.i./hm^2): 100%
Zinnia control activity (control effect %) (zinnia; [1]): 100%
Piemarker control activity (control effect %) (piemarker; dose 37.5 g a.i./hm^2): 90%
Piemarker control activity (control effect %) (piemarker; dose 150 g a.i./hm^2): 95%
Piemarker control activity (control effect %) (piemarker; dose 600 g a.i./hm^2): 100%

COCCOCc1c(S(C)(=O)=O)ccc(C(=O)c2c(C)nn(C)c2OC(=O)/C=C/c2ccc(-c3ccccc3)cc2)c1Cl [Compound 1-81]
Barnyard grass control activity (control effect %) (barnyard grass; dose 37.5 g a.i./hm^2): 80%
Barnyard grass control activity (control effect %) (barnyard grass; dose 150 g a.i./hm^2): 90%
Barnyard grass control activity (control effect %) (barnyard grass; dose 600 g a.i./hm^2): 95%
Zinnia control activity (control effect %) (zinnia; dose 37.5 g a.i./hm^2): 90%
Zinnia control activity (control effect %) (zinnia; dose 150 g a.i./hm^2): 95%
Zinnia control activity (control effect %) (zinnia; [1]): 100%

COCCOCc1c(S(C)(=O)=O)ccc(C(=O)c2c(C)nn(C)c2OC(=O)/C=C/c2ccc3c(c2)OCO3)c1Cl [Compound 1-82]
Barnyard grass control activity (control effect %) (barnyard grass; dose 37.5 g a.i./hm^2): 90%
Barnyard grass control activity (control effect %) (barnyard grass; dose 150 g a.i./hm^2): 95%
Barnyard grass control activity (control effect %) (barnyard grass; dose 600 g a.i./hm^2): 100%

COCCOc1c(S(C)(=O)=O)ccc(C(=O)c2c(C)nn(C)c2OC(=O)/C=C/c2ccccc2)c1C [Compound 1-259]
Barnyard grass control activity (control effect %) (barnyard grass; dose 37.5 g a.i./hm^2): 100%
Barnyard grass control activity (control effect %) (barnyard grass; dose 150 g a.i./hm^2): 100%
Piemarker control activity (control effect %) (piemarker; dose 37.5 g a.i./hm^2): 100%
Piemarker control activity (control effect %) (piemarker; dose 150 g a.i./hm^2): 100%
Green bristlegrass control activity (control effect %) (green bristlegrass; dose 37.5 g a.i./hm^2): 100%
Green bristlegrass control activity (control effect %) (green bristlegrass; dose 150 g a.i./hm^2): 100%

CCOc1c(S(C)(=O)=O)ccc(C(=O)c2c(C)nn(C)c2OC(=O)/C=C/c2ccccc2)c1C [Compound 1-280]
Barnyard grass control activity (control effect %) (barnyard grass; dose 37.5 g a.i./hm^2): 85%
Barnyard grass control activity (control effect %) (barnyard grass; dose 150 g a.i./hm^2): 95%
Barnyard grass control activity (control effect %) (barnyard grass; dose 600 g a.i./hm^2): 100%
Green bristlegrass control activity (control effect %) (green bristlegrass; dose 37.5 g a.i./hm^2): 80%
Green bristlegrass control activity (control effect %) (green bristlegrass; dose 150 g a.i./hm^2): 90%
Green bristlegrass control activity (control effect %) (green bristlegrass; dose 600 g a.i./hm^2): 100%

Cc1c(C(=O)c2cnn(C)c2OC(=O)/C=C/c2ccccc2)ccc(S(C)(=O)=O)c1C1=NOCC1 [Compound 1-292]
Barnyard grass control activity (control effect %) (barnyard grass; dose 37.5 g a.i./hm^2): 90%
Barnyard grass control activity (control effect %) (barnyard grass; dose 150 g a.i./hm^2): 95%
Barnyard grass control activity (control effect %) (barnyard grass; dose 600 g a.i./hm^2): 100%
Piemarker control activity (control effect %) (piemarker; dose 37.5 g a.i./hm^2): 90%
Piemarker control activity (control effect %) (piemarker; dose 150 g a.i./hm^2): 90%
Piemarker control activity (control effect %) (piemarker; dose 600 g a.i./hm^2): 95%
Green bristlegrass control activity (control effect %) (green bristlegrass; dose 37.5 g a.i./hm^2): 90%
Green bristlegrass control activity (control effect %) (green bristlegrass; dose 150 g a.i./hm^2): 90%
Green bristlegrass control activity (control effect %) (green bristlegrass; dose 600 g a.i./hm^2): 95%

Cc1nn(C)c(OC(=O)C2=CCCCC2)c1C(=O)c1ccc(S(C)(=O)=O)c(OCC(F)(F)F)c1C [Compound 2-37]
Barnyard grass control activity (control effect %) (barnyard grass; dose 37.5 g a.i./hm^2): 95%
Barnyard grass control activity (control effect %) (barnyard grass; dose 150 g a.i./hm^2): 100%
Barnyard grass control activity (control effect %) (barnyard grass; dose 600 g a.i./hm^2): 100%

COCCOc1c(S(C)(=O)=O)ccc(C(=O)c2cnn(C)c2OC(=O)C2=CCCCC2)c1C [Compound 2-67]
Barnyard grass control activity (control effect %) (barnyard grass; dose 37.5 g a.i./hm^2): 90%
Barnyard grass control activity (control effect %) (barnyard grass; dose 150 g a.i./hm^2): 100%
Barnyard grass control activity (control effect %) (barnyard grass; dose 600 g a.i./hm^2): 100%

Cc1nn(C)c(OC(=O)C2=CCCCC2)c1C(=O)c1ccc(S(C)(=O)=O)c(OCC2CCCO2)c1C (stereo not shown) [Compound 2-73]
Barnyard grass control activity (control effect %) (barnyard grass; dose 37.5 g a.i./hm^2): 95%
Barnyard grass control activity (control effect %) (barnyard grass; dose 150 g a.i./hm^2): 100%
Barnyard grass control activity (control effect %) (barnyard grass; dose 600 g a.i./hm^2): 100%

Cc1c(C(=O)c2cnn(C)c2OC(=O)C2=CCCCC2)ccc(S(C)(=O)=O)c1C1=NOCC1 [Compound 2-121]
Green bristlegrass control activity (control effect %) (green bristlegrass; dose 37.5 g a.i./hm^2): 80%
Green bristlegrass control activity (control effect %) (green bristlegrass; dose 150 g a.i./hm^2): 90%
Green bristlegrass control activity (control effect %) (green bristlegrass; dose 600 g a.i./hm^2): 98%

Cc1c(C(=O)c2cnn(C)c2OC(=O)C2=CCCC2)ccc(S(C)(=O)=O)c1C1=NOCC1 [Compound 2-123]
Barnyard grass control activity (control effect %) (barnyard grass; dose 37.5 g a.i./hm^2): 100%
Barnyard grass control activity (control effect %) (barnyard grass; dose 150 g a.i./hm^2): 100%
Barnyard grass control activity (control effect %) (barnyard grass; dose 600 g a.i./hm^2): 100%
Green bristlegrass control activity (control effect %) (green bristlegrass; dose 37.5 g a.i./hm^2): 90%
Green bristlegrass control activity (control effect %) (green bristlegrass; dose 150 g a.i./hm^2): 100%
Green bristlegrass control activity (control effect %) (green bristlegrass; dose 600 g a.i./hm^2): 100%

Cc1nn(C)c(OC(=O)/C=C/c2ccccc2)c1C(=O)c1ccc([N+](=O)[O-])cc1Cl [KC1, reference compound]
Barnyard grass control activity (control effect %) (barnyard grass; dose 37.5 g a.i./hm^2): 0%
Barnyard grass control activity (control effect %) (barnyard grass; dose 150 g a.i./hm^2): 0%
Barnyard grass control activity (control effect %) (barnyard grass; dose 600 g a.i./hm^2): 0%
Zinnia control activity (control effect %) (zinnia; dose 37.5 g a.i./hm^2): 0%
Zinnia control activity (control effect %) (zinnia; dose 150 g a.i./hm^2): 0%
Zinnia control activity (control effect %) (zinnia; [1]): 0%
Piemarker control activity (control effect %) (piemarker; dose 37.5 g a.i./hm^2): 20%
Piemarker control activity (control effect %) (piemarker; dose 150 g a.i./hm^2): 70%
Piemarker control activity (control effect %) (piemarker; dose 600 g a.i./hm^2): 100%
Green bristlegrass control activity (control effect %) (green bristlegrass; dose 37.5 g a.i./hm^2): 10%
Green bristlegrass control activity (control effect %) (green bristlegrass; dose 150 g a.i./hm^2): 10%
Green bristlegrass control activity (control effect %) (green bristlegrass; dose 600 g a.i./hm^2): 10%

Cn1nc(C2CC2)c(C(=O)c2ccc(C(F)(F)F)cc2S(C)(=O)=O)c1OC(=O)C1=CCCCC1 [KC2, reference compound]
Barnyard grass control activity (control effect %) (barnyard grass; dose 37.5 g a.i./hm^2): 60%
Barnyard grass control activity (control effect %) (barnyard grass; dose 150 g a.i./hm^2): 90%
Green bristlegrass control activity (control effect %) (green bristlegrass; dose 37.5 g a.i./hm^2): 30%
Green bristlegrass control activity (control effect %) (green bristlegrass; dose 150 g a.i./hm^2): 60%
